Experimental data: patent US8067382B2, “Anthelmintic composition” (Merial Limited, priority 2002, dated 2011)

Experiments:
liver flukes = details: background statement; cited from earlier work
[1] = Stability trial of Formulation 1 stored at ambient for 11 months, HPLC assay of actives; assay type: physicochemical
Method: A stability trial was conducted to ensure that the triclabendazole solution was stable. A formulation made as described in example 1 (“Formulation 1”) was stored at ambient for 11 months. At the conclusion of the storage period samples were tested for total abamectin and triclabendazole levels. [table]

[2] = background statement; cited from earlier work

| Compound | Efficacy against liver flukes by life cycle stage (liver flukes) | Loss in activity after storage [1] | Physical stability of the solution after storage [1] | Solubility [2] |
| --- | --- | --- | --- | --- |
| CCCSc1ccc2nc(NC(=O)OC)[nH]c2c1 [Albendazole] | only effective against adult flukes | – | – | – |
| CSc1nc2cc(Cl)c(Oc3cccc(Cl)c3Cl)cc2[nH]1 [triclabendazole, 5-Chloro-6-(2,3-dichlorophenoxy)-2-methylthio-1H-benzimidazole] | highly effective against liver flukes at all stages of their life cycle | no loss in activity | remained in solution | highly insoluble |
| Abamectin | – | no loss in activity | – | – |
